From patent US7179479B1, “Mosquito repellent isolated from Foeniculum vulgare fruit” (Naturobiotech Co., Ltd., priority 2000, dated 2007)
Where “and” joins values, the source holds several entries; their conditions need not be identical. Equal entries are not always repeated. Where two headings read alike, the source gives them in different places.

Columns and labels:
[1] = skin treated with 300 ug/cm^2 DEET, cited from earlier work
Aedes aegypti [2] = experiment: Skin test of mosquito repellency (bites on treated skin); format: in vivo
Experimental: In order to exactly confirm mosquito repellent activity, the compounds containing repellent activity were further examined by a skin test directly against skin. The cage was covered with a 35×35×35 cm mail net structure. Tests were conducted against nulliparous females 7–10 days old. Both compounds, in 100 μl of ethanol, were applied to a rubber glove surface with a 50 mm diameter hole punched on the hand. After drying in the air for 1 minute, skin was exposed for 5 minutes in a cage containing 60 mosquitoes. Repellent activity was measured by the number of mosquitoes biting the skin. The control treated only with 95% ethanol was also exposed to mosquitoes in the same manner. The degree of repellency was expressed in terms of percent repellency calculated according to the following Equation 2. [formula]

Aedes aegypti [3] = experiment: Patch test of mosquito repellency (landings on treated gauze); format: in vivo; settings: for Mosquito repellency of chromatography fractions (active / inert): patch test of Test 1, fractions of the hexane portion
Source text: Aedes aegypti were used in the tests of mosquito repellency in the experiments of the present invention. They were provided from the National Institute of Health in Korea and were selected from indoor breeding insects that were not exposed to insecticides or other drugs. Larvae were reared in 30×35×10 cm cages. […] The pupae were transferred to a paper-cup using a spoide and then the paper-cup was moved to a cage being a structure (35×35×35 cm) made from wire. […] For patch test, 35×35×35 cm screen wire cage were used. Tests were conducted on nulliparous females 7-10 days old. The methanol extract and 4 types of portions prepared in the Example 1 and 100 μl of ethanol were applied to a piece of gauze (50 mm-diameter). After drying in the air for 2 minutes, the gauze was put on a rubber glove with a 50 mm-diameter hole punched in it and it was exposed in a cage (35×35×35 cm containing 60 mosquitoes). Because the gauze on the rubber glove was 5 mm away from the skin, mosquitoes would probe through the gauze in an attempt to feed but could not reach the back of the hand. Repellent activity was measured by the number of mosquitoes landing on the gauze for 5 minutes. An untreated gauze (95% ethanol only) was also exposed to mosquitoes in the same manner and considered as a control. The degree of repellency was expressed in terms of percent repellency calculated according to the following equation. [formula] Also, in order to identify mosquito repelling activity, it was compared with synthetic repellent DEET by recording the number of landings.

rat [4] = settings: epidermal; cited from earlier work
rat [5] = settings: oral administration; cited from earlier work
[6] = patch test, dose 0.004 mg/cm^2 (so in the source)

| Compound | skin penetration ratio ([1]; after 1 hour) | skin penetration ratio ([1]; after 12 hours) | Repellency (average ± standard deviation, %) (Aedes aegypti [2]; dose 0.04 mg/cm^2) | Repellency (average ± standard deviation, %) (Aedes aegypti [2]; dose 0.1 mg/cm^2) | Repellency (average ± standard deviation, %) (Aedes aegypti [2]; dose 0.2 mg/cm^2) | Repellency (average ± standard deviation, %) (Aedes aegypti [2]; dose 0.4 mg/cm^2) | Repellency (average ± standard deviation, %) (Aedes aegypti [3]; [6]) | Repellency (average ± standard deviation, %) (Aedes aegypti [3]; patch test, dose 0.005 mg/cm^2) | Repellency (average ± standard deviation, %) (Aedes aegypti [3]; patch test, dose 0.01 mg/cm^2) | Repellency (average ± standard deviation, %) (Aedes aegypti [3]; patch test, dose 0.02 mg/cm^2) | Repellency (%) (Aedes aegypti [3]; patch test, dose 0.1 mg/cm^2, A. aegypti females, 5 min exposure) | Mosquito repellency of chromatography fractions (active / inert) (Aedes aegypti [3]) | Repellency (average ± standard deviation, %) (Aedes aegypti [2]; dose 0.4 mg/cm^2, listed as fenchone) | Repellency (average ± standard deviation, %) (Aedes aegypti [3]; patch test, dose 0.005 mg/cm^2, listed as fenchone) | Repellency (average ± standard deviation, %) (Aedes aegypti [3]; patch test, dose 0.01 mg/cm^2, listed as fenchone) | LD50 (rat [4]) | LD50 (rat [5]) |
| --- | --- | --- | --- | --- | --- | --- | --- | --- | --- | --- | --- | --- | --- | --- | --- | --- | --- |
| CCN(CC)C(=O)c1cccc(C)c1 [DEET, N,N-diethyl-m-toluamide, reference compound] | 30% | 36% | 98.4 ± 0.5b % | 100a % | 100a % | 100a % | 100a % | 84.6% and 84.6 ± 1.3c % | 96.4 ± 0.5b % | 100a % | > 80% | – | – | – | – | – | – |
| CCCCCCCC/C=C/CCCCCCCC(=O)O [E-9-octadecenoic acid] | – | – | – | – | 52.3 ± 0.9% | 80.4% and 80.4 ± 0.2% | 100a % | 73.4% and 73.4 ± 2.3c % | – | 98.6 ± 0.9a % | – | potent active principles | – | – | – | – | – |
| CC1(C)C(=O)[C@@]2(C)CC[C@@H]1C2 [Fenchone, (+)-fenchone] | – | – | 76.2 ± 0.2c % | 91.7 ± 0.9b % | 100a % | 100a % | 100a % | 82.1 ± 0.7c % | 93.9 ± 0.6b % | 100a % | – | – | perfect repellent activity | 82.1% | potent repellency comparable with that of DEET | – | – |
| CC1CCC(C(C)(C)O)C(O)C1 (stereo not shown) [PMD, p-menthan-3,8-diol] | – | – | – | – | – | – | – | – | – | – | – | – | – | – | – | > 2,000 mg/kg | 2,408 mg/kg |
| (+)-fenchone | – | – | – | – | – | – | – | – | – | – | – | potent active principles | – | – | – | – | – |
